PubChem BioAssay AID1117324 (Cheminformatics & Chemogenomics Research Group (CCRG), …, 2015)
Active and inactive are the calls of the source. No rule for the calls is given here. Where a SMILES comes first, the peptide text is derived from it. Bridges are numbered along the chain shown (N, C = ends). [ ]: non-standard residue; d: D form. hArg = N=C(N)NCCCC[C@H](N)C(=O)O; Mpa = O=C(O)CCS

test system: VEGF-stimulated ADSC/ECFC co-culture, nuclear area imaging; experiment: nuclear area loss in endothelial-stromal co-culture, dose response, cell-based, VEGF stimulation, IC50 (AID 1117324)

| SMILES | IC50 |
| --- | --- |
| COC(=O)Nc1nc2ccc(Sc3ccccc3)cc2[nH]1 | > 10 µM (inactive) |
| O=C(Nc1ccc(Br)cc1)c1cc(Br)cc(Br)c1O | > 10 µM (inactive) |
| O=[N+]([O-])c1cc(I)c(O)c(I)c1 | > 10 µM (inactive) |
| Oc1ccc(Cl)cc1Cc1cc(Cl)ccc1O | 6 µM (inactive) |
| O=C(Nc1ccc([N+](=O)[O-])cc1Cl)c1cc(Cl)ccc1O | 5.81 µM (inactive) |
| Clc1ccc(CCC(Cn2ccnc2)Sc2c(Cl)cccc2Cl)cc1 (stereo not given) | 6.74 µM (inactive) |
| C[C@H]1O[C@@H](O[C@H]2[C@@H](O)C[C@H](O[C@H]3[C@@H](O)C[C@H](O[C@H]4CC[C@@]5(C)[C@H](CC[C@@H]6[C@@H]5CC[C@]5(C)[C@@H](C7=CC(=O)OC7)CC[C@]65O)C4)O[C@@H]3C)O[C@@H]2C)C[C@H](O)[C@@H]1O | 0.103 µM |
| CN(C)c1ccc(C(=C2C=CC(=[N+](C)C)C=C2)c2ccccc2)cc1 | 1.72 µM |
| CCN[C@@H](C)Cc1cccc(C(F)(F)F)c1 | > 10 µM (inactive) |
| CC(C)=CCNc1ncnc2c1ncn2[C@@H]1O[C@H](CO)[C@@H](O)[C@H]1O | > 10 µM (inactive) |
| CCCCCCCCOc1ccccc1C(=O)Nc1ccc(C(=O)OCC[N+](C)(CC)CC)cc1 | 8.47 µM (inactive) |
| O=c1[nH]c(=O)n([C@H]2C[C@H](O)[C@@H](CO)O2)cc1F | > 10 µM (inactive) |
| CCCCCCCC[N+](C)(C)CCCCCCCC | 7.43 µM (inactive) |
| Oc1ccc(/C=C/c2cc(O)cc(O)c2)cc1 | > 10 µM (inactive) |
| CCC1=C[C@@H]2CN(C1)Cc1c([nH]c3ccccc13)[C@@](C(=O)OC)(c1cc3c(cc1OC)N(C)[C@H]1[C@@](O)(C(=O)OC)[C@H](OC(C)=O)[C@]4(CC)C=CCN5CC[C@]31[C@@H]54)C2 | > 10 µM (inactive) |
| CC[C@@H]([C@H](C)O)n1ncn(-c2ccc(N3CCN(c4ccc(OC[C@@H]5CO[C@@](Cn6cncn6)(c6ccc(F)cc6F)C5)cc4)CC3)cc2)c1=O | > 10 µM (inactive) |
| CCOC(=O)[C@H](CCc1ccccc1)N[C@@H](C)C(=O)N1C(=O)N(C)C[C@H]1C(=O)O | > 10 µM (inactive) |
| CCCCCCCC/C=C\CCCCCCCCN | 9.13 µM (inactive) |
| O=NN(CCCl)C(=O)NC1CCCCC1 | > 10 µM (inactive) |
| Nc1cc(C(F)(F)F)ccc1S | > 10 µM (inactive) |
| CCN(CC)C(=O)c1cccnc1 | > 10 µM (inactive) |
| O=C(NC(=O)c1c(F)cccc1F)Nc1ccc(Cl)c(Oc2ncc(C(F)(F)F)cc2Cl)c1 | > 10 µM (inactive) |
| CSc1ccc2c(c1)C(N1CCN(C)CC1)Cc1ccccc1S2 (stereo not given) | > 10 µM (inactive) |

| SMILES | IC50 |
| --- | --- |
| NC(=NCCCCCCN=C(N)/N=C(\N)Nc1ccc(Cl)cc1)/N=C(\N)Nc1ccc(Cl)cc1 | > 10 µM (inactive) |
| Cc1ccc(C(=O)Oc2ccc(C(O)CNC(C)(C)C)cc2OC(=O)c2ccc(C)cc2)cc1 (stereo not given) | > 10 µM (inactive) |
| CC(=O)N(CC(O)CN(C(C)=O)c1c(I)c(C(=O)NCC(O)CO)c(I)c(C(=O)NCC(O)CO)c1I)c1c(I)c(C(=O)NCC(O)CO)c(I)c(C(=O)NCC(O)CO)c1I (stereo not given) | > 10 µM (inactive) |
| CC[C@]1(O)C[C@H]2CN(CCc3c([nH]c4ccccc34)[C@@](C(=O)OC)(c3cc4c(cc3OC)N(C=O)[C@H]3[C@@](O)(C(=O)OC)[C@H](OC(C)=O)[C@]5(CC)C=CCN6CC[C@]43[C@@H]65)C2)C1 | > 10 µM (inactive) |
| Nc1c2ccccc2nc2ccccc12 | > 10 µM (inactive) |
| CCc1oc2ccccc2c1C(=O)c1cc(Br)c(O)c(Br)c1 | > 10 µM (inactive) |
| CC(C)OC(=O)OCOP(=O)(CO[C@H](C)Cn1cnc2c(N)ncnc21)OCOC(=O)OC(C)C | > 10 µM (inactive) |
| Cc1nc2ccccc2n1Cc1ccc(Cl)cc1 | > 10 µM (inactive) |
| O=C1CC[C@H](C(=O)N2CCCCC2)N1 | > 10 µM (inactive) |
| COC(=O)N[C@H](C(=O)N[C@@H](Cc1ccccc1)[C@@H](O)CN(Cc1ccc(-c2ccccn2)cc1)NC(=O)[C@@H](NC(=O)OC)C(C)(C)C)C(C)(C)C | > 10 µM (inactive) |
| CCN(CC)CCOc1ccc(C(O)(Cc2ccc(Cl)cc2)c2ccc(C)cc2)cc1 (stereo not given) | 6.98 µM (inactive) |
| CC(C)=CCOc1ccc(/C=C/C(=O)c2ccc(OCC=C(C)C)cc2OCC(=O)O)cc1 | > 10 µM (inactive) |
| CCOC(=O)C=C(C)C=CC[C@@H](C)CCCC(C)C | > 10 µM (inactive) |
| CCCCCCC[N+](CC)(CC)CCCCc1ccc(Cl)cc1 | > 10 µM (inactive) |
| Cc1cc(O)c2c(O)c3c(O)cccc3cc2c1 | > 10 µM (inactive) |
| CN(C)CCCN1c2ccccc2Sc2ccc(Cl)cc21 | > 10 µM (inactive) |
| NC(=O)[C@@H]1CSSCCC(=O)N[C@@H](CCCCN=C(N)N)C(=O)NCC(=O)N[C@@H](CC(=O)O)C(=O)N[C@@H](Cc2c[nH]c3ccccc23)C(=O)N2CCC[C@H]2C(=O)N1 ([Mpa][hArg]GDWPC-NH2; disulfide 1-7) | > 10 µM (inactive) |
| Clc1cc(Cl)c(OCC#CI)cc1Cl | > 10 µM (inactive) |
| COc1cccc2c1C(=O)c1c(O)c3c(c(O)c1C2=O)C[C@@](O)(C(=O)CO)C[C@@H]3O[C@H]1C[C@H](N)[C@H](O)[C@H](C)O1 | 0.114 µM |
| CS(=O)(=O)CCNCc1ccc(-c2ccc3ncnc(Nc4ccc(OCc5cccc(F)c5)c(Cl)c4)c3c2)o1 | > 10 µM (inactive) |
| C[C@@H]1C[C@@H]([C@H](O)CC2CC(=O)NC(=O)C2)C(=O)[C@@H](C)C1 | > 10 µM (inactive) |
| CCCCCCCCOC(=O)c1ccccc1C(=O)OCCCCCCCC | > 10 µM (inactive) |
